Reference: patent publication US9844546B2, “Antibody against human HIF hydroxylase” (OXFORD UNIVERSITY INNOVATION LIMITED, priority 2001, dated 2017)
“Also recorded” adds a separate entry of the source.

How the values were obtained:
pVHL = pVHL capture assay using biotinylated synthetic polypeptides; assay type: binding, human; conditions: wild type or mutant (Pro86His) pVHL; with or without cell extract
Procedure: We synthesized a polypeptide (HIF-1α residues 556-574), containing a trans-4-hydroxy-S-proline residue at position 564 (19:Pro564Hyp), since the trans-4-hydroxylation is the commonest enzymatic proline oxidation (25). A polypeptide blocking assay was carried out using the 19:Pro564Hyp modified polypeptide and, as a control, the unmodified polypeptide without the trans-4-hydroxylation (19:WT). The 19:WT polypeptide was either incubated with cell extract before the binding assay or was untreated. The 19:Pro564Hyp polypeptide was added to a mixture of HIF-1α and pVHL-HA IVTTs at a concentration of 1, 0.25, 0.05 or 0.01 μM and the cell extract treated or untreated 19:WT polypeptide at a concentration of 0.5 μM. Interaction of HIF-1α with pVHL was then assayed by anti-HA immunoprecipitation. […] A pVHL capture assay was then carried out using biotinylated synthetic polypeptides. The same polypeptides, 19:Pro564Hyp and 19:WT were assessed for the ability to capture wild type or mutant (Pro86His) pVHL. […] In both cases capture was specific for wild type, as opposed to mutant, pVHL.
• 1. G. L. Semenza, Genes Dev 14, 1983-91. (2000). • 2. N. V. Iyer, et al., Genes Dev. 12, 149-162 (1997). • 3. E. Maltepe, J. V. Schmidt, D. Baunoch, C. A. Bradfield, M. C. Simon, Nature 386, 403-407 (1997). • 4. G. L. Wang, B.-H. Jiang, E. A. Rue, G. L. Semenza, Proc. Natl. Acad. Sci. USA 92, 5510-5514 (1995). • 5. […]

HIF = assay: Induction of HIF in tissue culture by esterified equivalents; assay type: cell-based; conditions: In-vivo esterified equivalent

19:Pro564Hyp: polypeptide (HIF-1α residues 556-574) containing a trans-4-hydroxy-S-proline residue at position 564
capture of pVHL by biotinylated polypeptide (pVHL): captured wild type pVHL without pre-treatment; also recorded: specifically captured wild type but not mutant pVHL

19:WT: polypeptide comprising HIF-1α residues 556 to 574
capture of pVHL by biotinylated polypeptide (pVHL): captured pVHL only after incubation with cell extract; also recorded: could not interact without prior incubation with cell extract

COC(=O)CNC(=O)C(=O)OC [dimethyloxalylglycine]
Induction of HIF in tissue culture (HIF): Yes
